Data: patent US12534457B2, “Heteroaryl derivative compounds, and uses thereof” (Voronoi Inc., priority 2021, dated 2026)

System: Ba/F3 cells expressing EGFR Del19/C797S (EGFR DC)
Assay: Proliferation inhibitory activity, Ba/F3 cells expressing EGFR Del19/C797S (CellTiter-Glo)
Format: cell-based
Settings: Mus musculus, BaF3, 72 hours of compound treatment
Protocol: The following experiments were performed to evaluate the inhibitory activity of the compounds according to the present disclosure on Ba/F3 proliferation expressing EGFR C797S, L861Q, G719A, S768I, L718Q, and/or G724S mutations.
For Ba/F3 cells, RPMI-1640 containing 10% FBS and 5 ng/ml IL-3 (R&D Systems) was used. Transduced Ba/F3 cells were cultured after adding 1 μg/ml puromycin (Invitrogen) to the same medium.
At 24 hours before treatment with the compounds, 3000 to 5000 cells were aliquoted into each well of a white clear bottom 96 well plate (Corning). The compounds were diluted in dimethyl sulfoxide (3 times dilution, 12 concentrations in total), and injected in an amount of 1 μl so that the final concentration was 0.2 nM to 5 uM. For measurement of living cells, after 72 hours of compound treatment, the cells were stored at room temperature for 10 min using CellTiter-Glo luminescentcell-viability reagent (Promega), and then luminescence intensity was measured using a reader (SynergyNeo, Biotek). Each test was repeated three times. Result values were calculated as the cell growth rate (%) compared to the control. The graphs were created using GraphPad Prism version 8.3.0 program and the GI50 values were calculated.

**Q.** `COc1cc(N2CCC(N3CCN4CCCC4C3)CC2)c(NC(=O)CCCl)cc1Nc1cc(N2OCC[C@@H]2c2cc(F)cc(F)c2)ncn1` (stereo partly drawn) [Example 86, 3-chloro-N-(5-((6-((R)-3-(3,5-difluorophenyl)isoxazolidin-2-yl)pyrimidin-4-yl)amino)-2-(4-(hexahydropyrrolo[1,2-a]pyrazin-2 (1H)-yl)piperidin-1-yl)-4-methoxyphenyl)propanamide] was tested. Which GI50 did it give?
**A.** The GI50 was less than 50 nM.

**Q.** With `CCC(=O)Nc1cc(Nc2cc(N3OCC[C@@H]3c3ccc(F)cc3F)ncn2)c(OC)cc1N1CCC(N2CCC(N3CCN(C)CC3)CC2)CC1` [Example 87, (R)—N-(5-((6-(3-(2,4-difluorophenyl)isoxazolidin-2-yl)pyrimidin-4-yl)amino)-4-methoxy-2-(4-(4-methylpiperazin-1-yl)-[1,4′-bipiperidin]-1′-yl)phenyl)propionamide] as the compound, how does the GI50 read?
**A.** The GI50 was less than 50 nM.

**Q.** How did the GI50 turn out when `COc1cc(N2CCC3(CC2)CC(N(C)C)C3)c(C)cc1Nc1cc(N2OCC[C@@H]2c2ccccc2)ncn1` [Example 88, (R)-7-(5-methoxy-2-methyl-4-((6-(3-phenylisoxazolidin-2-yl)pyrimidin-4-yl)amino)phenyl)-N,N-dimethyl-7-azaspiro[3.5]nonan-2-amine] was run?
**A.** The GI50 was less than 50 nM.

**Q.** Which GI50 does the source give for `COc1cc(N2CCC(N3CCN(C)CC3)CC2)ccc1Nc1cc(N2OCC[C@@H]2c2ccc3ccccc3c2)ncn1` [Example 89, (R)—N-(2-methoxy-4-(4-(4-methylpiperazin-1-yl)piperidin-1-yl)phenyl)-6-(3-(naphthalen-2-yl)isoxazolidin-2-yl)pyrimidin-4-amine] here?
**A.** The GI50 was 50 to 500 nM.

**Q.** `COc1cc(N2CCC(N3CCN(C)CC3)CC2)ccc1Nc1cc(N2OCC[C@@H]2c2ccc(F)c(F)c2)ncn1` [Example 90, (R)-6-(3-(3,4-difluorophenyl)isoxazolidin-2-yl)-N-(2-methoxy-4-(4-(4-methylpiperazin-1-yl)piperidin-1-yl)phenyl)pyrimidin-4-amine] was tested. Which GI50 did it give?
**A.** Its GI50 is less than 50 nM.

**Q.** How did the GI50 turn out when `CCc1cc(Nc2cc(N3OCC[C@@H]3c3ccc(F)cc3)ncn2)c(OC)cc1N1CCC(N2CCN(C)CC2)CC1` [Example 91, (R)—N-(5-ethyl-2-methoxy-4-(4-(4-methylpiperazin-1-yl)piperidin-1-yl)phenyl)-6-(3-(4-fluorophenyl)isoxazolidin-2-yl)pyrimidin-4-amine] was run?
**A.** Its GI50 is less than 50 nM.

**Q.** With `CCc1cc(Nc2cc(N3OCC[C@@H]3c3cccc(F)c3F)ncn2)c(OC)cc1N1CCC(N2CCN(C)CC2)CC1` [Example 92, (R)-6-(3-(2,3-difluorophenyl)isoxazolidin-2-yl)-N-(5-ethyl-2-methoxy-4-(4-(4-methylpiperazin-1-yl)piperidin-1-yl)phenyl)pyrimidin-4-amine] as the compound, how does the GI50 read?
**A.** Its GI50 is less than 50 nM.

**Q.** For `CCc1cc(Nc2cc(N3OCC[C@@H]3c3ccc(F)cc3F)ncn2)c(OC)cc1N1CCC(N2CCN(C)CC2)CC1` [Example 93, (R)-6-(3-(2,4-difluorophenyl)isoxazolidin-2-yl)-N-(5-ethyl-2-methoxy-4-(4-(4-methylpiperazin-1-yl)piperidin-1-yl)phenyl)pyrimidin-4-amine], which GI50 is on record?
**A.** The GI50 was less than 50 nM.

**Q.** Which GI50 does the source give for `CCc1cc(Nc2cc(N3OCC[C@@H]3c3cc(F)ccc3F)ncn2)c(OC)cc1N1CCC(N2CCN(C)CC2)CC1` [Example 94, (R)-6-(3-(2,5-difluorophenyl)isoxazolidin-2-yl)-N-(5-ethyl-2-methoxy-4-(4-(4-methylpiperazin-1-yl)piperidin-1-yl)phenyl)pyrimidin-4-amine] here?
**A.** Its GI50 is less than 50 nM.

**Q.** `COc1cc(Nc2cc(N3OCC[C@@H]3c3ccc(F)cc3F)ncn2)ccc1N1CCC(N2CCN(C)CC2)CC1` [Example 95, (R)-6-(3-(2,4-difluorophenyl)isoxazolidin-2-yl)-N-(3-methoxy-4-(4-(4-methylpiperazin-1-yl)piperidin-1-yl)phenyl)pyrimidin-4-amine] was tested. Which GI50 did it give?
**A.** The GI50 was less than 50 nM.

**Q.** `COc1cc(Nc2cc(N3OCC[C@@H]3c3ccc(F)cc3)ncn2)ccc1N1CCC(N2CCN(C)CC2)CC1` [Example 96, (R)-6-(3-(4-fluorophenyl)isoxazolidin-2-yl)-N-(3-methoxy-4-(4-(4-methylpiperazin-1-yl)piperidin-1-yl)phenyl)pyrimidin-4-amine] was tested. Which GI50 did it give?
**A.** The GI50 was less than 50 nM.

**Q.** With `COc1cc(N2CCC(N3C[C@H]4C[C@@H]3CO4)CC2)ccc1Nc1cc(N2OCC[C@@H]2c2ccccc2)ncn1` [Example 97, N-(4-(4-((1R,4R)-2-oxa-5-azabicyclo[2.2.1]heptan-5-yl)piperidin-1-yl)-2-methoxyphenyl)-6-((R)-3-phenylisoxazolidin-2-yl)pyrimidin-4-amine] as the compound, how does the GI50 read?
**A.** Its GI50 is less than 50 nM.

**Q.** Which GI50 does the source give for `CCN(CC)C1CCN(c2ccc(Nc3cc(N4OCC[C@@H]4c4ccccc4)ncn3)c(OC)c2)CC1` [Example 98, (R)—N-(4-(4-(diethylamino)piperidin-1-yl)-2-methoxyphenyl)-6-(3-phenylisoxazolidin-2-yl)pyrimidin-4-amine] here?
**A.** Its GI50 is less than 50 nM.

**Q.** With `COc1cc(N2CCN(C3CCN(C)CC3)C[C@H]2C)ccc1Nc1cc(N2OCC[C@@H]2c2ccccc2)ncn1` [Example 99, N-(2-methoxy-4-((R)-2-methyl-4-(1-methylpiperidin-4-yl)piperazin-1-yl)phenyl)-6-((R)-3-phenylisoxazolidin-2-yl)pyrimidin-4-amine] as the compound, how does the GI50 read?
**A.** Its GI50 is less than 50 nM.

**Q.** `COc1cc(N2CCC(N3CCN(C)CC3)CC2)ccc1Nc1cc(N2OCC[C@@H]2c2cccc(C(=O)OC(C)C)c2)ncn1` [Example 100, isopropyl (R)-3-(2-(6-((2-methoxy-4-(4-(4-methylpiperazin-1-yl)piperidin-1-yl)phenyl)amino)pyrimidin-4-yl)isoxazolidin-3-yl)benzoate] was tested. Which GI50 did it give?
**A.** Its GI50 is 50 to 500 nM.

**Q.** How did the GI50 turn out when `COc1cc(N2CCN(C3CCN(C)CC3)CC2)ccc1Nc1cc(N2OCC[C@@H]2c2ccccc2)ncn1` [Example 101, (R)—N-(2-methoxy-4-(4-(1-methylpiperidin-4-yl)piperazin-1-yl)phenyl)-6-(3-phenylisoxazolidin-2-yl)pyrimidin-4-amine] was run?
**A.** The GI50 was less than 50 nM.

**Q.** How did the GI50 turn out when `Cc1cc(Nc2cc(N3OCC[C@@H]3c3cc(F)ccc3F)ncn2)ccc1N1CCC(N2CCN(C)CC2)CC1` [Example 103, (R)-6-(3-(2,5-difluorophenyl)isoxazolidin-2-yl)-N-(3-methyl-4-(4-(4-methylpiperazin-1-yl)piperidin-1-yl)phenyl)pyrimidin-4-amine] was run?
**A.** Its GI50 is less than 50 nM.

**Q.** `COc1cc(Nc2cc(N3OCC[C@@H]3c3ccc(Cl)cc3F)ncn2)ccc1N1CCC(N2CCN(C)CC2)CC1` [Example 105, (R)-6-(3-(4-chloro-2-fluorophenyl)isoxazolidin-2-yl)-N-(3-methoxy-4-(4-(4-methylpiperazin-1-yl)piperidin-1-yl)phenyl)pyrimidin-4-amine] was tested. Which GI50 did it give?
**A.** Its GI50 is less than 50 nM.

**Q.** Which GI50 does the source give for `COc1cc(Nc2cc(N3OCC[C@@H]3c3cc(F)ccc3F)ncn2)ccc1N1CCC(N2CCN(C)CC2)CC1` [Example 106, (R)-6-(3-(2,5-difluorophenyl)isoxazolidin-2-yl)-N-(3-methoxy-4-(4-(4-methylpiperazin-1-yl)piperidin-1-yl)phenyl)pyrimidin-4-amine] here?
**A.** Its GI50 is less than 50 nM.

**Q.** Which GI50 does the source give for `Cc1cc(Nc2cc(N3OCC[C@@H]3c3ccccc3)ncn2)ccc1N1CCN(C)CC1` [Example 107, (R)—N-(3-methyl-4-(4-methylpiperazin-1-yl)phenyl)-6-(3-phenylisoxazolidin-2-yl)pyrimidin-4-amine] here?
**A.** Its GI50 is less than 50 nM.

**Q.** `Cc1cc(N2CCOCC2)ccc1Nc1cc(N2OCC[C@@H]2c2ccccc2)ncn1` [Example 108, (R)—N-(2-methyl-4-morpholinophenyl)-6-(3-phenylisoxazolidin-2-yl)pyrimidin-4-amine] was tested. Which GI50 did it give?
**A.** Its GI50 is less than 50 nM.

**Q.** For `CCc1cc(Nc2cc(N3OCC[C@@H]3c3ccccc3)ncn2)c(OC)cc1N1CCC(N2CCN(C)CC2)CC1` [Example 109, (R)—N-(5-ethyl-2-methoxy-4-(4-(4-methylpiperazin-1-yl)piperidin-1-yl)phenyl)-6-(3-phenylisoxazolidin-2-yl)pyrimidin-4-amine], which GI50 is on record?
**A.** Its GI50 is less than 50 nM.

**Q.** With `COc1cc(N2CCOCC2)ccc1Nc1cc(N2OCC[C@@H]2c2ccccc2)ncn1` [Example 110, (R)—N-(2-methoxy-4-morpholinophenyl)-6-(3-phenylisoxazolidin-2-yl)pyrimidin-4-amine] as the compound, how does the GI50 read?
**A.** Its GI50 is less than 50 nM.

**Q.** How did the GI50 turn out when `COc1cc(N2CCC(N3CCN(C)CC3)CC2)ccc1Nc1cc(N2OCC[C@@H]2c2ccccc2)nc(N)n1` [Example 111, (R)—N4-(2-methoxy-4-(4-(4-methylpiperazin-1-yl)piperidin-1-yl)phenyl)-6-(3-phenylisoxazolidin-2-yl)pyrimidin-2,4-diamine] was run?
**A.** Its GI50 is 50 to 500 nM.

**Q.** For `COc1cc(N2CCC(N3CCN(C)CC3)CC2)ccc1Nc1ncnc(N2OCC[C@@H]2c2ccccc2)n1` [Example 112, (R)—N-(2-methoxy-4-(4-(4-methylpiperazin-1-yl)piperidin-1-yl)phenyl)-4-(3-phenylisoxazolidin-2-yl)-1,3,5-triazin-2-amine], which GI50 is on record?
**A.** Its GI50 is 50 to 500 nM.

**Q.** With `COc1cc(NC2CCN(C)CC2)ccc1Nc1cc(N2OCC[C@@H]2c2ccccc2)ncn1` [Example 113, (R)-2-methoxy-N4-(1-methylpiperidin-4-yl)-N1-(6-(3-phenylisoxazolidin-2-yl)pyrimidin-4-yl)benzene-1,4-diamine] as the compound, how does the GI50 read?
**A.** Its GI50 is less than 50 nM.

**Q.** For `COc1cc(N2CCC(N3CCN(C)CC3)CC2)c(C)cc1Nc1cc(N2OCC[C@@H]2c2ccccc2)ncn1` [Example 114, (R)—N-(2-methoxy-5-methyl-4-(4-(4-methylpiperazin-1-yl)piperidin-1-yl)phenyl)-6-(3-phenylisoxazolidin-2-yl)pyrimidin-4-amine], which GI50 is on record?
**A.** The GI50 was less than 50 nM.

**Q.** How did the GI50 turn out when `COc1cc(N2CCC(N3CCC(N(C)C)CC3)CC2)ccc1Nc1cc(N2OCC[C@@H]2c2ccccc2)ncn1` [Example 115, (R)-1′-(3-methoxy-4-((6-(3-phenylisoxazolidin-2-yl)pyrimidin-4-yl)amino)phenyl)-N,N-dimethyl-[1,4′-bipiperidin]-4-amine] was run?
**A.** Its GI50 is less than 50 nM.
